No end group written: not given here.
Legend:
POMC neurons = experiment: Whole cell recordings from fluorescent POMC-EGFP neurons in ARC slices (Example 2); format: cell-based, mouse
[1] = Co-administration of PYY3-36 and GLP-1 by intravenous infusion in humans, free buffet meal; format: in vivo, human
Excerpt: 10 healthy volunteers (4 men and 6 women) having a mean age of 24.7 (±0.8) years and a mean BMI of 22.7 (±0.6) kg/m^2 were recruited. The volunteers were asked to fast and to drink only water from 9 pm on the night preceding all study days. Each volunteer attended for four study days. The volunteers arrived at 9.30 am and the venflons were inserted.
The study was double blinded. GLP-1 is i.e. GLP-1 (7-36) amide

[2] = 1-hour food intake after IP GLP-1 with intra-arcuate exendin 9-39 in non-fasted rats; format: in vivo, rat; conditions: GLP-1 25 nmol/kg, exendin 9-39 20 nmoles/kg, FIG. 11
Protocol: GLP-1 i.e. GLP-1 (7-36) amide (25 nmol/kg) or saline (control) was administered parenterally to non-fasted rats prior to the onset of the dark phase. Exendin 9-39 (20 nmoles/kg) or saline (control) injected into the arcuate nucleus of non-fasted rats. Food intake one hour later was measured.

[3] = Intracerebroventricular GLP-1 in rats; format: in vivo, rat
Excerpt: This effect is blocked by the specific GLP-1 receptor antagonist, exendin 9-39. GLP-1 receptors are found in the brainstem, arcuate nucleus and PVN. Following ICV GLP-1 administration, c-fos is expressed in the arcuate nucleus and PVN.

[4] = test system: non-fluorescent ARC neurons; experiment: Recordings from adjacent non-fluorescent ARC neurons; format: cell-based, mouse; conditions: 13 cells tested

CTAP
effect on the current induced by Met-Enk in POMC cells (POMC neurons; CTAP 1 μM, Met-Enk 30 μM, n=3): completely prevented

GLP-1 (7-36) amide (HAEGTFTSDVSSYLEGGAAKEFIAWLVKGR-NH2)
Food intake from free buffet meal, mean ([1]; IV infusion 0.4 pmol/kg/min for 120 minutes (90 minutes pre-meal), 10 volunteers, saline 997): 950 kcal
% reduction from saline ([1]; IV infusion 0.4 pmol/kg/min for 120 minutes, free buffet meal): 5%
effect of IP GLP-1 on 1-hour food intake with exendin 9-39 in the arcuate nucleus [2]: not influenced by the presence of concomitant exendin 9-39
food intake after ICV administration [3]: potently inhibits food intake

exendin 9-39
effect on inhibition of food intake by ICV GLP-1 [3]: blocked

D-Trp^8-γMSH
increase in frequency of GABAergic IPSCs in POMC neurons (POMC neurons; 7 nM, 3 of 4 POMC neurons): 280±90%
hyperpolarization of POMC neurons (POMC neurons; 7 nM, 9 of 15 POMC neurons): −5.5±2.4 mV

neuropeptide Y [NPY]
hyperpolarization of POMC neurons, average (POMC neurons; n=3): 9±6 mV

leptin: leptin, hormone applied to POMC cells in slice preparations
effect on membrane potential of non-fluorescent ARC cells [4]: had no effect on 5 of 13 adjacent non-fluorescent cells tested (FIG. 3e), while it hyperpolarized 5 (FIG. 3f) and depolarized 3 other non-POMC neurons
decrease in frequency of GABAergic IPSCs in POMC cells (POMC neurons; 100 nM, in 5 out of 15 cells): 25%
depolarization of POMC cells, mean±SEM (POMC neurons; 100 nM, n=45): 9.7±1.2 mV
time to depolarization of POMC cells (POMC neurons; 0.1-100 nM): 2 to 10 min
depolarization of POMC cells (POMC neurons; 0.1-100 nM, 72 of 77 POMC cells): 3-30 mV

met-enkephalin
time to hyperpolarization of POMC cells (POMC neurons; 30 μM): 35 to 40 s
hyperpolarization of the membrane potential of POMC cells (POMC neurons; 30 μM, n=10, reversible): 10-20 mV

— US8058233B2, “Modification of feeding behavior using PYY and GLP-1” (Oregon Health and Science University, priority 2002, dated 2011)
